Laboratory results reported in patent publication US9532947B2, “Formulation for oral transmucosal administration of analgesic and/or antispasmodic molecules” (priority 2009, dated 2017).

How the values were obtained:
[1] = Complete dissolution of active principle in approximately 40° ethanol (dissolution coefficient); assay type: physicochemical
From the text: The expression “stable and completely dissolved state” refers to a solution state rendering the active principle in the molecular and weakly ionized state in its solution medium, this solution state preventing any possibility of inopportune recrystallization. This stable and completely dissolved state may be monitored immediately on use of the formulation of the invention by evaluating the visual appearance of the solution obtained (measurement of the degree of limpidity), then at the level of the filtration residues (appearance or non-appearance of crystals), and finally in the medium-term and long-term during stability tracking tests at varying temperatures and relative humidities.
By way of illustration, the dissolution coefficient of phloroglucinol in ethanol makes it possible to obtain complete dissolution of said active principle at the rate of 20 milligrams (mg) of phloroglucinol in 0.75 mL of approximately 40° ethanol.
Similarly, the coefficient of dissolution of tiemonium methylsulfate in ethanol makes it possible to obtain complete dissolution of said active principle at the rate of 10 mg of tiemonium in 0.75 mL of approximately 40° ethanol. The coefficient of dissolution of nefopam in ethanol makes it possible to obtain complete dissolution of said active principle at the rate of 20 mg of nefopam in 1 mL of approximately 40° ethanol.

[2] = oral/digestive route, cited from earlier work; for fraction of the orally administered dose that is truly bioavailable (residual part reaching the smooth muscular membranes): coated pill or ODT form, on average at best

SMILES | complete dissolution of active principle at the rate of [1] | fraction of the orally administered dose that is truly bioavailable (residual part reaching the smooth muscular membranes) [2] | truly bioavailable dose of active principle resorbed by the digestive tract ([2]; all three main metabolites have no pharmacological activity)
COS(=O)(=O)[O-].C[N+]1(CCC(O)(c2ccccc2)c2cccs2)CCOCC1 (stereo not drawn) [tiemonium, tiemonium methylsulfate] | 10 mg in 0.75 mL | 10% to 15 | 
CN1CCOC(c2ccccc2)c2ccccc2C1 (stereo not drawn) [nefopam] | 20 mg in 1 mL |  | virtually nil
Oc1cc(O)cc(O)c1 [phloroglucinol] | 20 mg in 0.75 mL | 40% to 50 | 
